The record followed here is patent US20250368649A1, “TETRAHYDROPYRIDOPYRIMIDINE PAN-KRAS INHIBITORS” (Mirati Therapeutics, Inc., priority 2022, published 2025).

SMILES strings stand for the structures. A value given as a limit tells only on which side of the number the result lay.

Assay [1] concerns ASPC1 cells. Briefly: Inhibition of KRas-mediated phosphorylation of ERK (Cisbio HTRF pERK), ASPC1 cells. It is filed as cell-based. Particulars: Homo sapiens, AsPC-1 cells; for IC50: ASPC1, 3 h, 3 hr compound incubation, Cisbio pERK HTRF. Background: TR-FRET usually uses a lanthanide donor and a delayed reading to cut background.
Assay [2] deals with KRas G12V (Homo sapiens, UniProt P01116, G12V). Kind of assay: biochemical. Particulars: Binding to KRas (IC50 nM) G12V, TR-FRET displacement, KRas G12V.
Chain of KRas G12V (P01116 1-169 isoform P01116-2 G12V): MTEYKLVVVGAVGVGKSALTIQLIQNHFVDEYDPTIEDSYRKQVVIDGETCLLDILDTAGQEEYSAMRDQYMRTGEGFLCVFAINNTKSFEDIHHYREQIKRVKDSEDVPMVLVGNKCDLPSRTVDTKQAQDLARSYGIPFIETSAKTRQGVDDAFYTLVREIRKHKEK
Assay [3] deals with A549 cells. Briefly: Inhibition of KRas-mediated phosphorylation of ERK (Cisbio HTRF pERK), A549 cells. It counts as cell-based. As to conditions: Homo sapiens; for IC50: A549, 3 h, 3 hr compound incubation, Cisbio pERK HTRF; for inhibition at 0.1 µM: single point at 100 nM, 3 hrs compound incubation.
Assay [4] addresses KRas G12D (Homo sapiens, UniProt P01116, G12D). Briefly: biochemical. As to conditions: Binding to KRas (IC50 nM) G12D, TR-FRET displacement, KRas G12D.
Assay [5] deals with KRas G12A (Homo sapiens, UniProt P01116, G12A). It counts as binding. Particulars: single point, 10 nM compound, read-out: Binding to KRas (% inhibition at 10 nM) G12A.
Chain of KRas G12A (P01116 1-169 isoform P01116-2 G12A): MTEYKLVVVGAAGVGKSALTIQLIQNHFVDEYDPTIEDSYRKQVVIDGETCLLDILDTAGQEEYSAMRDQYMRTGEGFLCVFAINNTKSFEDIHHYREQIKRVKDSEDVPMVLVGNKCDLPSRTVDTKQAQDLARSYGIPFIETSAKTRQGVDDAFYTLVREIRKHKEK
In assay [6] the target is KRas WT (Homo sapiens, UniProt P01116). Kind of assay: KRas binding assay (TR-FRET displacement), KRas WT. Particulars: single point, 10 nM compound.
Chain of KRas WT (P01116 1-169 isoform P01116-2): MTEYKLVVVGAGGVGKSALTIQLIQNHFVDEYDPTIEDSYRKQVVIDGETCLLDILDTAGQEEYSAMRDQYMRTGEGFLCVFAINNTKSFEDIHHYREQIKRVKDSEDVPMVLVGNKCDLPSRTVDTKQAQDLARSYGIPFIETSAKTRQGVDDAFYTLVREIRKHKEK
Assay [7] concerns the target KRas Q61H (Homo sapiens, UniProt P01116, Q61H). Kind of assay: KRas binding assay (TR-FRET displacement), KRas Q61H. As to conditions: single point, 10 nM compound.
Assay [8] concerns MKN1 cells. Briefly: Inhibition of KRas-mediated phosphorylation of ERK (Cisbio HTRF pERK), MKN1 cells. It counts as cell-based. As to conditions: Homo sapiens, MKN-1, 3 hour compound incubation, Cisbio pERK HTRF. A digest of the protocol: (§1)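 Seeding density of 6,000 cells per well was used, with cultures kept in RPMI/10% FBS from day 1.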
Assay [9] deals with HCT116 cells. Kind of assay: Inhibition of KRas-mediated phosphorylation of ERK (Cisbio HTRF pERK), HCT116 cells. Particulars: Homo sapiens; for IC50: HCT-116, 3 h, 3 hr compound incubation, Cisbio pERK HTRF; for inhibition at 0.1 µM: HCT-116, single point at 100 nM, 3 hrs compound incubation. It is filed as cell-based.
Assay [10] deals with PSN1 cells. Kind of assay: Inhibition of KRas-mediated phosphorylation of ERK (Cisbio HTRF pERK), PSN1 cells. It is filed as cell-based. As to conditions: Homo sapiens, PSN1, 3 h, 3 hour compound incubation, Cisbio pERK HTRF. A digest of the protocol:
as §1

Assay [11] has as its target KRas G12C (Homo sapiens, UniProt P01116, G12C). It counts as binding. As to conditions: single point, 10 nM compound, read-out: Binding to KRas (% inhibition at 10 nM) G12C.
In assay [12] the test system is H727 cells. Briefly: Inhibition of KRas-mediated phosphorylation of ERK (Cisbio HTRF pERK), H727 cells. It is filed as cell-based. Particulars: Homo sapiens; for IC50: NCI-H727, 3 h, 3 hr compound incubation, Cisbio pERK HTRF.
The target of assay [13] is KRas G13D (Homo sapiens, UniProt P01116, G13D). It is filed as binding. Particulars: single point, 10 nM compound, read-out: Binding to KRas (% inhibition at 10 nM) G13D.
Chain of KRas G13D (P01116 1-169 isoform P01116-2 G13D): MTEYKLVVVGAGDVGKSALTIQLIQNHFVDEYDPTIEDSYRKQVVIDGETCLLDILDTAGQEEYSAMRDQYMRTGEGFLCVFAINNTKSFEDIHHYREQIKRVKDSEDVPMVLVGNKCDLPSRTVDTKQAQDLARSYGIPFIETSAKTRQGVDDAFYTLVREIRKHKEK
Assay [14] relates to H358 cells. Briefly: Inhibition of KRas-mediated phosphorylation of ERK (Cisbio HTRF pERK), H358 cells. It counts as cell-based. Particulars: Homo sapiens; for IC50: NCI-H358, 3 h, 3 hr compound incubation, Cisbio pERK HTRF; for inhibition at 0.1 µM: NCI-H358, single point at 100 nM, 3 hrs compound incubation.
Assay [15] has as its target KRas G12R (Homo sapiens, UniProt P01116, G12R). Briefly: biochemical. Particulars: Binding to KRas (IC50 nM) G12R, TR-FRET displacement, KRas G12R.
Assay [16] deals with H460 cells. Briefly: Inhibition of KRas-mediated phosphorylation of ERK (Cisbio HTRF pERK), H460 cells. Particulars: Homo sapiens; for IC50: NCI-H460, 3 h, 3 hr compound incubation, Cisbio pERK HTRF; for inhibition at 0.1 µM: NCI-H460, single point at 100 nM, 3 hrs compound incubation. It counts as cell-based.
Assay [17] concerns the target KRas G12S (Homo sapiens, UniProt P01116, G12S). It counts as binding. As to conditions: single point, 10 nM compound, read-out: Binding to KRas (% inhibition at 10 nM) G12S.

Chain of KRas G12D (P01116 1-169 isoform P01116-2 G12D): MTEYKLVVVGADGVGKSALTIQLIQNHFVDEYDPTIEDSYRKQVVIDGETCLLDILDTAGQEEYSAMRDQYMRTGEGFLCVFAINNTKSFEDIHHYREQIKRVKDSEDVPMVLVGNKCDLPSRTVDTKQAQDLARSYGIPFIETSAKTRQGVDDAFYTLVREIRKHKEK
Chain of KRas G12S (P01116 1-169 isoform P01116-2 G12S): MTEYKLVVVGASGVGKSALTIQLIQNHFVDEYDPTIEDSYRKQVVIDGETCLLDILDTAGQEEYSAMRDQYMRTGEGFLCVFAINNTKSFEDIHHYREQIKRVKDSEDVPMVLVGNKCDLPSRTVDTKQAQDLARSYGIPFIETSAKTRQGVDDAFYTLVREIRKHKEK
Chain of KRas G12C (P01116 1-169 isoform P01116-2 G12C): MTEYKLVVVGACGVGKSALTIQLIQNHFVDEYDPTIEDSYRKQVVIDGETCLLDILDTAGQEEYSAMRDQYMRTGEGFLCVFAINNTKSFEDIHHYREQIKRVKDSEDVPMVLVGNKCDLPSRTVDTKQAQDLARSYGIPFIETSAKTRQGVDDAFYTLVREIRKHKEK
Chain of KRas Q61H (P01116 1-169 isoform P01116-2 Q61H): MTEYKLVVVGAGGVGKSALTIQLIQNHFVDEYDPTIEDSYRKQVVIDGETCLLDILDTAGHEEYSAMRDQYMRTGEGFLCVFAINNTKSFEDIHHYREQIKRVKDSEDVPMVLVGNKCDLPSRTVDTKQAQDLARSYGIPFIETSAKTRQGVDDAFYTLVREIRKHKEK
Chain of KRas G12R (P01116 1-169 isoform P01116-2 G12R): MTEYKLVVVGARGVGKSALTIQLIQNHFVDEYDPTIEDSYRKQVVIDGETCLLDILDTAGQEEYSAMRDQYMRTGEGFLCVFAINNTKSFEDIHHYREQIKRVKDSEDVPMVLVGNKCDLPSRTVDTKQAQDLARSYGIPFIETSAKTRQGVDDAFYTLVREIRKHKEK

Consider `CCc1c(F)ccc2cc(O)cc(N3CCc4c(nc(OC[C@@]56CCCN5C[C@H](F)C6)nc4N4CCCn5nc(C(=O)N6C7CCCC6C7)cc5C4)C3)c12` [Example 286, 6-azabicyclo[3.1.1]heptan-6-yl(5-(7-(8-ethyl-7-fluoro-3-hydroxynaphthalen-1-yl)-2-(((2R,7aS)-2-fluorohexahydro-1H-pyrrolizin-7a-yl)methoxy)-5,6,7,8-tetrahydropyrido[3,4-d]pyrimidin-4-yl)-5,6,7,8-tetrahydro-4H-pyrazolo[1,5-a][1,4]diazepin-2-yl)methanone], for which the 50% inhibitory concentration (IC50) in assay [1] is 4 nM; in [2], less than 2 nM; in [3], 29 nM; in [4], less than 2 nM; in assay [8], 11.9 nM; in assay [9], 211 nM. In addition, the half-maximal inhibitory concentration (IC50) was 3270 nM in [10]; 8 nM in [12]; 6 nM in assay [14]; less than 2 nM in [15]; 49 nM in assay [16]. Besides, the inhibition at 0.1 µM in assay [1] (ASPC1, single point at 100 nM, 3 hrs compound incubation) was 96%; in assay [3] it was 87%; in assay [9] it was 46%; in assay [12] (NCI-H727, single point at 100 nM, 3 hrs compound incubation), 80%; in assay [14] it was 97%; in assay [16], 66%. The inhibition at 0.01 µM in [5] is 94%; in assay [6] it was 94%; in assay [7], 95%; in [11], 98%; in assay [13], 94%; in [17], 97%.

In the case of `CCc1c(F)ccc2cc(O)cc(N3CCc4c(nc(OC[C@@]56CCCN5C[C@H](F)C6)nc4N4CCCn5nc(C(=O)N(C)C6CC6)c(C)c5C4)C3)c12` [Example 292, N-cyclopropyl-5-(7-(8-ethyl-7-fluoro-3-hydroxynaphthalen-1-yl)-2-(((2R,7aS)-2-fluorohexahydro-1H-pyrrolizin-7a-yl)methoxy)-5,6,7,8-tetrahydropyrido[3,4-d]pyrimidin-4-yl)-N,3-dimethyl-5,6,7,8-tetrahydro-4H-pyrazolo[1,5-a][1,4]diazepine-2-carboxamide], the IC50 in assay [1] was 2 nM; in assay [2] it was less than 2 nM; in assay [3], 8 nM; in [4], less than 2 nM; in [8] it was 2 nM; in assay [9], 40 nM. The half-maximal inhibitory concentration (IC50) was 2230 nM in assay [10]; 5 nM in assay [12]; 1 nM in [14]; less than 2 nM in [15]; 17 nM in [16]. For the same compound, the inhibition at 0.1 µM was 98% in assay [3], 75% in assay [9], 100% in assay [14] and 93% in assay [16]. The inhibition at 0.01 µM was determined as 98% in assay [5]; 99% in [6]; 100% in [7]; 100% in [11]; 98% in [13]; 99% in assay [17].

Take `CCc1c(F)ccc2cc(O)cc(N3CCc4c(nc(OC[C@@]56CCCN5C[C@H](F)C6)nc4N4CCCn5nc(C(=O)NC6CC6)c(C)c5C4)C3)c12` [Example 293, N-cyclopropyl-5-(7-(8-ethyl-7-fluoro-3-hydroxynaphthalen-1-yl)-2-(((2R,7aS)-2-fluorohexahydro-1H-pyrrolizin-7a-yl)methoxy)-5,6,7,8-tetrahydropyrido[3,4-d]pyrimidin-4-yl)-3-methyl-5,6,7,8-tetrahydro-4H-pyrazolo[1,5-a][1,4]diazepine-2-carboxamide]: the IC50 in [1] was 3 nM; in assay [2], less than 2 nM; in assay [3], 18 nM; in [4] it was less than 2 nM; in assay [8] it was 15.9 nM; in assay [9], 224 nM. Also, the IC50 was 6010 nM in [10]; 8 nM in assay [12]; 3 nM in assay [14]; less than 2 nM in assay [15]; 48 nM in assay [16]. Further, the inhibition at 0.1 µM was 86% in assay [3], 40% in [9], 95% in assay [14] and 66% in assay [16]. Moreover, the inhibition at 0.01 µM in assay [5] was found to be 95%; in [6] it was 92%; in assay [7], 92%; in assay [11], 99%; in assay [13] it was 91%; in [17], 99%.

For the compound `CCc1c(F)ccc2cc(O)cc(N3CCc4c(nc(OC[C@@]56CCCN5C[C@H](F)C6)nc4N4CCCn5nc(C(=O)N(C)C)c(C6CC6)c5C4)C3)c12` [Example 294, 3-cyclopropyl-5-(7-(8-ethyl-7-fluoro-3-hydroxynaphthalen-1-yl)-2-(((2R,7aS)-2-fluorohexahydro-1H-pyrrolizin-7a-yl)methoxy)-5,6,7,8-tetrahydropyrido[3,4-d]pyrimidin-4-yl)-N,N-dimethyl-5,6,7,8-tetrahydro-4H-pyrazolo[1,5-a][1,4]diazepine-2-carboxamide], the 50% inhibitory concentration (IC50) in assay [1] was 4 nM; in assay [2], less than 2 nM; in [3], 7 nM; in [4] it was less than 2 nM; in [8], 4 nM; in assay [9] it was 41 nM. Further, the IC50 in assay [10] was 3800 nM; in [12], 10 nM; in [14] it was 2 nM; in assay [15], less than 2 nM; in [16] it was 15 nM. In addition, the inhibition at 0.1 µM came out at 82% in [3], 72% in assay [9], 100% in assay [14] and 90% in assay [16]. The inhibition at 0.01 µM was determined as 98% in [5]; 98% in assay [6]; 98% in [7]; 100% in assay [11]; 98% in assay [13]; 100% in [17].

With `CCc1c(F)ccc2cc(O)cc(N3CCc4c(nc(OC[C@@]56CCCN5C[C@H](F)C6)nc4N4CCCn5nc(C(=O)N(C)C)c(C(C)C)c5C4)C3)c12` [Example 295, 5-(7-(8-ethyl-7-fluoro-3-hydroxynaphthalen-1-yl)-2-(((2R,7aS)-2-fluorohexahydro-1H-pyrrolizin-7a-yl)methoxy)-5,6,7,8-tetrahydropyrido[3,4-d]pyrimidin-4-yl)-3-isopropyl-N,N-dimethyl-5,6,7,8-tetrahydro-4H-pyrazolo[1,5-a][1,4]diazepine-2-carboxamide], the IC50 in assay [1] is 20 nM; in assay [2], less than 2 nM; in assay [4], less than 2 nM; in assay [8], 3.5 nM; in assay [10], more than 10000 nM; in assay [12], 23 nM. Further, the IC50 in [15] is less than 2 nM. Further, the inhibition at 0.1 µM in assay [3] was determined as 60%; in assay [9], 63%; in [14] it was 97%; in assay [16], 84%. Also, the inhibition at 0.01 µM in [5] stood at 99%; in [6], 99%; in [7] it was 98%; in [11], 99%; in assay [13] it was 98%; in [17], 99%.

Usually IC50 stands for the concentration at which inhibition is half-maximal. Lower therefore signals greater potency in that assay. Broadly, the inhibition is the share of the control response that was lost under treatment.
